Data as given in US11707440B2 (priority 2017, dated 2023).

Tests used:
[1] = test system: patients with treatment-resistant depression (TRD); experiment: Adverse events, Example 7; type: in vivo, human; conditions: for Dissociation, number of participants / Dissociative disorder, % of participants / Dissociative disorder, number of participants / Dizziness, % of participants / Dizziness, number of participants / Dysgeusia, % of participants / Dysgeusia, number of participants / Feeling abnormal, % of participants / Feeling abnormal, number of participants / Headache, % of participants / Headache, number of participants / Hypersomnia, % of participants / Hypersomnia, number of participants / Hypertension, number of participants / Hypoesthesia oral, % of participants / Hypoesthesia oral, number of participants / Insomnia, number of participants / Nasal discomfort, number of participants / Nausea, % of participants / Nausea, number of participants / Oropharyngeal pain, number of participants / Polyuria, number of participants / Sedation, % of participants / Sedation, number of participants / Throat irritation, % of participants / Throat irritation, number of participants / Total with events, % of participants / Total with events, number of participants / Tunnel vision, number of participants / Vertigo, % of participants / Vertigo, number of participants / Vision blurred, number of participants / Dissociation, % of participants / Hypertension, % of participants / Insomnia, % of participants / Nasal discomfort, % of participants / Oropharyngeal pain, % of participants / Polyuria, % of participants / Tunnel vision, % of participants / Vision blurred, % of participants: double-blind
Method: Adverse events were monitored throughout the study. Other safety assessments (i.e., laboratory tests, vital signs, physical examination) were performed at pre-specified time points. Vital signs, the Clinician Administered Dissociative States Scale (CADSS; Bremner, “Measurement of dissociative states with the clinician-administered dissociative states scale (CADSS)”, J. Traumatic Stress, 1998, 11(1):125-136), and the 4-item positive symptom subscale from the Brief Psychiatric Rating Scale (BPRS; Overall, “The Brief Psychiatric Rating Scale. Psychological Reports”, 1962, 10:799-812) were assessed pre-dose, at 40 minutes, and 2 hours post-dose.
Safety data were analyzed in Period 1, Period 2, double-blind, and open-label data sets, for all subjects receiving at least 1 dose of study medication.

[2] = test system: subjects with MDD at imminent risk for suicide; conditions: esketamine 84 mg
Method: The CADSS was measured prior to the start of each dose, at 40 minutes. 2 hours, and 4 hours postdose.

CN[C@]1(c2ccccc2Cl)CCCCC1=O [esketamine, (S)-2-(2-chlorophenyl)-2-(methylamino)cyclohexanone]
Dissociation, number of participants ([1]; 28 mg): 0
Dissociative disorder, % of participants ([1]; 28 mg): 11%
Dissociative disorder, number of participants ([1]; 28 mg): 2
Dizziness, % of participants ([1]; 28 mg): 21%
Dizziness, number of participants ([1]; 28 mg): 4
Dysgeusia, % of participants ([1]; 28 mg): 11%
Dysgeusia, number of participants ([1]; 28 mg): 2
Feeling abnormal, % of participants ([1]; 28 mg): 11%
Feeling abnormal, number of participants ([1]; 28 mg): 2
Headache, % of participants ([1]; 28 mg): 32%
Headache, number of participants ([1]; 28 mg): 6
Hypersomnia, % of participants ([1]; 28 mg): 11%
Hypersomnia, number of participants ([1]; 28 mg): 2
Hypertension, number of participants ([1]; 28 mg): 0
Hypoesthesia oral, % of participants ([1]; 28 mg): 5%
Hypoesthesia oral, number of participants ([1]; 28 mg): 1
Insomnia, number of participants ([1]; 28 mg): 0
Nasal discomfort, number of participants ([1]; 28 mg): 0
Nausea, % of participants ([1]; 28 mg): 11%
Nausea, number of participants ([1]; 28 mg): 2
Oropharyngeal pain, number of participants ([1]; 28 mg): 0
Polyuria, number of participants ([1]; 28 mg): 0
Sedation, % of participants ([1]; 28 mg): 5%
Sedation, number of participants ([1]; 28 mg): 1
Throat irritation, % of participants ([1]; 28 mg): 5%
Throat irritation, number of participants ([1]; 28 mg): 1
Total with events, % of participants ([1]; 28 mg): 58%
Total with events, number of participants ([1]; 28 mg): 11
Tunnel vision, number of participants ([1]; 28 mg): 0
Vertigo, % of participants ([1]; 28 mg): 11%
Vertigo, number of participants ([1]; 28 mg): 2
Vision blurred, number of participants ([1]; 28 mg): 0
Dissociation, % of participants ([1]; 56 mg): 35%
Dissociation, number of participants ([1]; 56 mg): 7
Dissociative disorder, % of participants ([1]; 56 mg): 5%
Dissociative disorder, number of participants ([1]; 56 mg): 1
Dizziness, % of participants ([1]; 56 mg): 40%
Dizziness, number of participants ([1]; 56 mg): 8
Dysgeusia, % of participants ([1]; 56 mg): 15%
Dysgeusia, number of participants ([1]; 56 mg): 3
Feeling abnormal, % of participants ([1]; 56 mg): 5%
Feeling abnormal, number of participants ([1]; 56 mg): 1
Headache, % of participants ([1]; 56 mg): 15%
Headache, number of participants ([1]; 56 mg): 3
Hypersomnia, number of participants ([1]; 56 mg): 0
Hypertension, % of participants ([1]; 56 mg): 10%
Hypertension, number of participants ([1]; 56 mg): 2
Hypoesthesia oral, % of participants ([1]; 56 mg): 20%
Hypoesthesia oral, number of participants ([1]; 56 mg): 4
Insomnia, % of participants ([1]; 56 mg): 10%
Insomnia, number of participants ([1]; 56 mg): 2
Nasal discomfort, % of participants ([1]; 56 mg): 10%
Nasal discomfort, number of participants ([1]; 56 mg): 2
Nausea, % of participants ([1]; 56 mg): 20%
Nausea, number of participants ([1]; 56 mg): 4
Oropharyngeal pain, % of participants ([1]; 56 mg): 5%
Oropharyngeal pain, number of participants ([1]; 56 mg): 1
Polyuria, % of participants ([1]; 56 mg): 10%
Polyuria, number of participants ([1]; 56 mg): 2
Sedation, % of participants ([1]; 56 mg): 10%
Sedation, number of participants ([1]; 56 mg): 2
Throat irritation, number of participants ([1]; 56 mg): 0
Total with events, % of participants ([1]; 56 mg): 80%
Total with events, number of participants ([1]; 56 mg): 16
Tunnel vision, number of participants ([1]; 56 mg): 0
Vertigo, % of participants ([1]; 56 mg): 5%
Vertigo, number of participants ([1]; 56 mg): 1
Vision blurred, number of participants ([1]; 56 mg): 0
Dissociation, % of participants ([1]; 84 mg): 24%
Dissociation, number of participants ([1]; 84 mg): 4
Dissociative disorder, % of participants ([1]; 84 mg): 24%
Dissociative disorder, number of participants ([1]; 84 mg): 4
Dizziness, % of participants ([1]; 84 mg): 47%
Dizziness, number of participants ([1]; 84 mg): 8
Dysgeusia, % of participants ([1]; 84 mg): 29%
Dysgeusia, number of participants ([1]; 84 mg): 5
Feeling abnormal, % of participants ([1]; 84 mg): 6%
Feeling abnormal, number of participants ([1]; 84 mg): 1
Headache, % of participants ([1]; 84 mg): 18%
Headache, number of participants ([1]; 84 mg): 3
Hypersomnia, number of participants ([1]; 84 mg): 0
Hypertension, % of participants ([1]; 84 mg): 6%
Hypertension, number of participants ([1]; 84 mg): 1
Hypoesthesia oral, % of participants ([1]; 84 mg): 12%
Hypoesthesia oral, number of participants ([1]; 84 mg): 2
Insomnia, number of participants ([1]; 84 mg): 0
Nasal discomfort, % of participants ([1]; 84 mg): 6%
Nasal discomfort, number of participants ([1]; 84 mg): 1
Nausea, % of participants ([1]; 84 mg): 24%
Nausea, number of participants ([1]; 84 mg): 4
Oropharyngeal pain, % of participants ([1]; 84 mg): 12%
Oropharyngeal pain, number of participants ([1]; 84 mg): 2
Polyuria, number of participants ([1]; 84 mg): 0
Sedation, % of participants ([1]; 84 mg): 6%
Sedation, number of participants ([1]; 84 mg): 1
Throat irritation, % of participants ([1]; 84 mg): 12%
Throat irritation, number of participants ([1]; 84 mg): 2
Total with events, % of participants ([1]; 84 mg): 88%
Total with events, number of participants ([1]; 84 mg): 15
Tunnel vision, % of participants ([1]; 84 mg): 12%
Tunnel vision, number of participants ([1]; 84 mg): 2
Vertigo, % of participants ([1]; 84 mg): 6%
Vertigo, number of participants ([1]; 84 mg): 1
Vision blurred, % of participants ([1]; 84 mg): 12%
Vision blurred, number of participants ([1]; 84 mg): 2
Dissociation, % of participants ([1]; Total esketamine): 20%
Dissociation, number of participants ([1]; Total esketamine): 11
Dissociative disorder, % of participants ([1]; Total esketamine): 13%
Dissociative disorder, number of participants ([1]; Total esketamine): 7
Dizziness, % of participants ([1]; Total esketamine): 36%
Dizziness, number of participants ([1]; Total esketamine): 20
Dysgeusia, % of participants ([1]; Total esketamine): 18%
Dysgeusia, number of participants ([1]; Total esketamine): 10
Feeling abnormal, % of participants ([1]; Total esketamine): 7%
Feeling abnormal, number of participants ([1]; Total esketamine): 4
Headache, % of participants ([1]; Total esketamine): 21%
Headache, number of participants ([1]; Total esketamine): 12
Hypersomnia, % of participants ([1]; Total esketamine): 4%
Hypersomnia, number of participants ([1]; Total esketamine): 2
Hypertension, % of participants ([1]; Total esketamine): 5%
Hypertension, number of participants ([1]; Total esketamine): 3
Hypoesthesia oral, % of participants ([1]; Total esketamine): 13%
Hypoesthesia oral, number of participants ([1]; Total esketamine): 7
Insomnia, % of participants ([1]; Total esketamine): 4%
Insomnia, number of participants ([1]; Total esketamine): 2
Nasal discomfort, % of participants ([1]; Total esketamine): 5%
Nasal discomfort, number of participants ([1]; Total esketamine): 3
Nausea, % of participants ([1]; Total esketamine): 18%
Nausea, number of participants ([1]; Total esketamine): 10
Oropharyngeal pain, % of participants ([1]; Total esketamine): 5%
Oropharyngeal pain, number of participants ([1]; Total esketamine): 3
Polyuria, % of participants ([1]; Total esketamine): 4%
Polyuria, number of participants ([1]; Total esketamine): 2
Sedation, % of participants ([1]; Total esketamine): 7%
Sedation, number of participants ([1]; Total esketamine): 4
Throat irritation, % of participants ([1]; Total esketamine): 5%
Throat irritation, number of participants ([1]; Total esketamine): 3
Total with events, % of participants ([1]; Total esketamine): 75%
Total with events, number of participants ([1]; Total esketamine): 42
Tunnel vision, % of participants ([1]; Total esketamine): 4%
Tunnel vision, number of participants ([1]; Total esketamine): 2
Vertigo, % of participants ([1]; Total esketamine): 7%
Vertigo, number of participants ([1]; Total esketamine): 4
Vision blurred, % of participants ([1]; Total esketamine): 4%
Vision blurred, number of participants ([1]; Total esketamine): 2
Participants with adverse events leading to discontinuation of study drug ([1]; double-blind phase): 5%
Adverse event dizziness ([1]; open-label phase): 38.6%
Adverse event dysgeusia ([1]; open-label phase): 22.8%
Adverse event headache ([1]; open-label phase): 14.0%
Adverse event nausea ([1]; open-label phase): 15.8%
Adverse event sedation ([1]; open-label phase): 10.5%
Participants reporting transient dissociative symptoms ([1]; open-label phase): 24.6%
Participants with adverse events leading to discontinuation of study drug ([1]; open-label phase): 2%
Time to resolution of dissociative symptoms (CADSS) [2]: ≤ 2 h
